Results taken from PMC10866072, “Design, synthesis, molecular modelling and biological evaluation of novel 6-amino-5-cyano-2-thiopyrimidine derivatives as potent anticancer agents against leukemia and apoptotic inducers” (Journal of Enzyme Inhibition and Medicinal Chemistry, 2024).

How the values were obtained:
RXF 393 = assay type: cell-based; details: Homo sapiens, RXF 393, 48 h, one dose 10^-5 M, 48 h, read-out: % growth
HCC-2998 = assay type: cell-based; details: Homo sapiens, one dose 10^-5 M, 48 h
SK-OV-3 = assay type: cell-based; details: Homo sapiens, one dose 10^-5 M, 48 h
DU-145 = assay type: cell-based; details: Homo sapiens, one dose 10^-5 M, 48 h
[1] = system: full NCI 60 cell lines panel; details: for activity at 10 µM: Homo sapiens, 60 cell, 48 h, read-out: Mean % growth
Procedure: 60 different human tumour cell lines-representing leukaemia, melanoma, and malignancies of the lung, colon, brain, ovary, breast, prostate, and kidney are used in the operation of this screen.
Compounds were dissolved in DMSO: glycerol (91) and were kept in a freezer at −70° C. The synthesised compounds were introduced to the culture at a single concentration of 1 0 ^−5 M and left to incubate for 48 h. A protein-binding dye called sulforhodamine B was used to measure end points (SRB).
A mean graph showing the % growth of treated cells is used to represent the one-dose data. The value provided for the One-dose assay represents growth in comparison to the no-drug control and to the number of cells at time zero. This enables the identification of lethality (values between 0 and 100) as well as growth inhibition (values less than 0). A value of 100, for instance, indicates no growth inhibition. A value of 40 would indicate 60% growth inhibition. A value of 0 indicates no net growth over the course of the experiment. A value of −40 would indicate 40% lethality.
Furthermore, the average sensitivity of all cell lines to the compound is termed as the full panel mean graph midpoints (MG-MID). The complete panel mean graph midpoints refers to the average sensitivity of all cell lines to the chemical (MG-MID). A measure of a compound’s selectivity for a given cell line is the ratio created by dividing the full panel mean graph midpoints (MG-MID) concentration by the individual subpanel MG-MID concentrations (obtained as the average sensitivity of all the cell lines in a given subpanel to the test compound).

RPMI-8226 = assay type: cell-based; details: Homo sapiens, one dose 10^-5 M, 48 h
KM12 = assay type: cell-based; details: Homo sapiens, one dose 10^-5 M, 48 h
MDA-MB-468 = assay type: cell-based; details: Homo sapiens, one dose 10^-5 M, 48 h
SN12C = assay type: cell-based, human; details: Homo sapiens, one dose 10^-5 M, 48 h
OVCAR-8 = assay type: cell-based; details: Homo sapiens, one dose 10^-5 M, 48 h
IGROV1 = assay type: cell-based; details: Homo sapiens, IGROV-1, one dose 10^-5 M, 48 h, read-out: % growth
HCT-116 = assay type: cell-based; details: Homo sapiens, one dose 10^-5 M, 48 h, read-out: % growth
MALME-3M = assay type: cell-based; details: Homo sapiens, one dose 10^-5 M, 48 h
MDA-MB-231/ATCC = assay type: cell-based; details: Homo sapiens, one dose 10^-5 M, 48 h
LOX IMVI = assay type: cell-based; details: Homo sapiens, one dose 10^-5 M, 48 h, read-out: % growth
SK-MEL-2 = assay type: cell-based; details: Homo sapiens, one dose 10^-5 M, 48 h
MDA-MB-435 = assay type: cell-based; details: Homo sapiens, one dose 10^-5 M, 48 h, read-out: % growth
HCT-15 = assay type: cell-based; details: Homo sapiens, one dose 10^-5 M, 48 h, read-out: % growth
OVCAR-3 = assay type: cell-based; details: Homo sapiens, one dose 10^-5 M, 48 h
HL-60(TB) = assay type: cell-based; details: Homo sapiens, one dose 10^-5 M, 48 h
786-0 = assay type: cell-based; details: Homo sapiens, one dose 10^-5 M, 48 h
SF-268 = assay type: cell-based; details: Homo sapiens, one dose 10^-5 M, 48 h, read-out: % growth
SF-295 = assay type: cell-based; details: Homo sapiens, one dose 10^-5 M, 48 h
SW-620 = assay type: cell-based; details: Homo sapiens, one dose 10^-5 M, 48 h
NCI-H226 = assay type: cell-based; details: one dose 10^-5 M, 48 h; for % growth at 10 µM: Homo sapiens
UO-31 = assay type: cell-based; details: Homo sapiens, UO-31, 48 h, one dose 10^-5 M, 48 h
OVCAR-5 = assay type: cell-based; details: Homo sapiens, one dose 10^-5 M, 48 h
TK-10 = assay type: cell-based; details: Homo sapiens, one dose 10^-5 M, 48 h
SNB-75 = assay type: cell-based; details: one dose 10^-5 M, 48 h; for % growth at 10 µM: Homo sapiens
HOP-92 = assay type: cell-based; details: one dose 10^-5 M, 48 h; for % growth at 10 µM: Homo sapiens
SK-MEL-28 = assay type: cell-based; details: Homo sapiens, one dose 10^-5 M, 48 h
UACC-257 = assay type: cell-based; details: Homo sapiens, one dose 10^-5 M, 48 h
PC-3 = assay type: cell-based; details: Homo sapiens, one dose 10^-5 M, 48 h
CCRF-CEM = assay type: cell-based; details: Homo sapiens, one dose 10^-5 M, 48 h
HS 578T = assay type: cell-based; details: one dose 10^-5 M, 48 h, HS 578T; for activity at 10 µM: Homo sapiens, read-out: % growth
SF-539 = assay type: cell-based; details: Homo sapiens, one dose 10^-5 M, 48 h
MCF7 = assay type: cell-based; details: Homo sapiens, one dose 10^-5 M, 48 h, read-out: % growth
T-47D = assay type: cell-based; details: Homo sapiens, T47D, one dose 10^-5 M, 48 h, read-out: % growth
SK-MEL-5 = assay type: cell-based; details: Homo sapiens, one dose 10^-5 M, 48 h, read-out: % growth
K-562 = assay type: cell-based; details: Homo sapiens, K562, one dose 10^-5 M, 48 h
ACHN = assay type: cell-based; details: Homo sapiens, one dose 10^-5 M, 48 h
MOLT-4 = assay type: cell-based; details: Homo sapiens, one dose 10^-5 M, 48 h, read-out: % growth
NCI-H460 = assay type: cell-based; details: Homo sapiens, one dose 10^-5 M, 48 h, read-out: % growth
EKVX = assay type: cell-based; details: Homo sapiens, one dose 10^-5 M, 48 h
OVCAR-4 = assay type: cell-based; details: Homo sapiens, one dose 10^-5 M, 48 h
SR = assay type: cell-based; details: Homo sapiens, one dose 10^-5 M, 48 h
A498 = assay type: cell-based; details: Homo sapiens, one dose 10^-5 M, 48 h
SNB-19 = assay type: cell-based; details: Homo sapiens, one dose 10^-5 M, 48 h, read-out: % growth
NCI-H23 = assay type: cell-based; details: Homo sapiens, one dose 10^-5 M, 48 h, read-out: % growth
A549/ATCC = assay type: cell-based; details: Homo sapiens, one dose 10^-5 M, 48 h
NCI-H522 = assay type: cell-based; details: Homo sapiens, one dose 10^-5 M, 48 h
HOP-62 = assay type: cell-based; details: Homo sapiens, one dose 10^-5 M, 48 h
M14 = assay type: cell-based; details: Homo sapiens, one dose 10^-5 M, 48 h
U251 = assay type: cell-based; details: Homo sapiens, U-251, one dose 10^-5 M, 48 h
HT29 = assay type: cell-based; details: Homo sapiens, HT-29, one dose 10^-5 M, 48 h
UACC-62 = assay type: cell-based; details: Homo sapiens, one dose 10^-5 M, 48 h
CAKI-1 = assay type: cell-based; details: Homo sapiens, CAKI-1, 48 h, one dose 10^-5 M, 48 h

N=C(NN=Cc1ccccc1)c1c(N)nc(S)nc1-c1ccc(Cl)cc1 [Compound 4g, 4-amino-6–(4-chlorophenyl)-2-mercapto-N'-[phenylmethylene]pyrimidine-5-carboximido hydrazide]
activity at 10 µM (RXF 393): 8.96%
% growth at 10 µM (HCC-2998): 93.1%
% growth at 10 µM (SK-OV-3): 81%
% growth at 10 µM (DU-145): 48.7%
activity at 10 µM [1]: 50.8%
% growth values, cell lines with lethal effect ([1]; one dose, range over those cell lines): −0.44%to-34.30
% growth at 10 µM (RPMI-8226): 51.4%
% growth at 10 µM (KM12): 62.3%
percent cell growth at 10 µM (MDA-MB-468): 49.7%
% growth at 10 µM (SN12C): 73.9%
% growth of cells at 10 µM (OVCAR-8): 20.4%
activity at 10 µM (IGROV1): 62.6%
activity at 10 µM (HCT-116): 30.6%
% growth at 10 µM (MALME-3M): 52.1%
% growth at 10 µM (MDA-MB-231/ATCC): 1.22%
activity at 10 µM (LOX IMVI): 22.6%
% growth at 10 µM (SK-MEL-2): 92.7%
activity at 10 µM (MDA-MB-435): 77.3%
activity at 10 µM (HCT-15): 53.1%
% growth at 10 µM (OVCAR-3): 77.7%
% growth at 10 µM (HL-60(TB)): 97%
% growth at 10 µM (786-0): 41.7%
activity at 10 µM (SF-268): 49.3%
% cell growth at 10 µM (SF-295): 35.6%
% growth at 10 µM (SW-620): 76.3%
% growth at 10 µM (NCI-H226): -0.68%
% growth (NCI-H226): -0.68%
% cell growth at 10 µM (UO-31): 29.4%
percent cell growth at 10 µM (OVCAR-5): 80.1%
% cell growth at 10 µM (TK-10): 93.9%
% growth at 10 µM (SNB-75): -34.3%
% growth (SNB-75): -34.30%
% growth at 10 µM (HOP-92): -0.44%
% growth (HOP-92): -0.44%
% cell growth at 10 µM (SK-MEL-28): 88.5%
percent cell growth at 10 µM (UACC-257): 92.8%
percent cell growth at 10 µM (PC-3): 52.6%
% cell growth at 10 µM (CCRF-CEM): 65%
activity at 10 µM (HS 578T): -6.98%
% growth (HS 578T): -6.98%
% growth at 10 µM (SF-539): 11.4%
activity at 10 µM (MCF7): 42.2%
activity at 10 µM (T-47D): 49.4%
activity at 10 µM (SK-MEL-5): 84.9%
% growth at 10 µM (K-562): 52.4%
% growth at 10 µM (ACHN): 23.3%
activity at 10 µM (MOLT-4): 58.5%
activity at 10 µM (NCI-H460): 16.5%
% cell growth at 10 µM (EKVX): 52.9%
% growth at 10 µM (OVCAR-4): 37.5%
percent cell growth at 10 µM (SR): 46.4%
% growth at 10 µM (A498): 105%
activity at 10 µM (SNB-19): 59.8%
activity at 10 µM (NCI-H23): 64.3%
% growth at 10 µM (A549/ATCC): 31.6%
% growth at 10 µM (NCI-H522): 56.4%
% growth at 10 µM (HOP-62): 30.2%
% growth at 10 µM (M14): 70.6%
% growth at 10 µM (U251): 13.2%
% growth at 10 µM (HT29): 78.5%
% growth at 10 µM (UACC-62): 78.1%
% growth at 10 µM (CAKI-1): 31.2%

N=C(NN=Cc1ccc(Cl)cc1)c1c(N)nc(S)nc1-c1ccc(Cl)cc1 [Compound 4h, 4-amino-6–(4-chlorophenyl)-N'-[(4-chlorophenyl)methylene]-2-mercapto pyrimidine-5-carboximidohydrazide]
activity at 10 µM (RXF 393): 103%
% growth at 10 µM (HCC-2998): 103%
% growth at 10 µM (SK-OV-3): 77.5%
% growth at 10 µM (DU-145): 108%
activity at 10 µM [1]: 91%
activity on all 60 cancer cell lines tested (in words) ([1]; one dose): weak activity
% growth at 10 µM (RPMI-8226): 83.8%
% growth at 10 µM (KM12): 91.9%
percent cell growth at 10 µM (MDA-MB-468): 99.3%
% growth at 10 µM (SN12C): 91.8%
% growth of cells at 10 µM (OVCAR-8): 94.8%
activity at 10 µM (IGROV1): 78.8%
activity at 10 µM (HCT-116): 86%
% growth at 10 µM (MALME-3M): 107%
% growth at 10 µM (MDA-MB-231/ATCC): 69.7%
activity at 10 µM (LOX IMVI): 94.3%
% growth at 10 µM (SK-MEL-2): 101%
activity at 10 µM (MDA-MB-435): 98.8%
activity at 10 µM (HCT-15): 90.4%
% growth at 10 µM (OVCAR-3): 107%
% growth at 10 µM (HL-60(TB)): 101%
% growth at 10 µM (786-0): 98.5%
activity at 10 µM (SF-268): 96%
% cell growth at 10 µM (SF-295): 90.2%
% growth at 10 µM (SW-620): 103%
% growth at 10 µM (NCI-H226): 99%
% cell growth at 10 µM (UO-31): 66.3%
percent cell growth at 10 µM (OVCAR-5): 95.4%
% cell growth at 10 µM (TK-10): 122%
% growth at 10 µM (SNB-75): 83.5%
% growth at 10 µM (HOP-92): 84.2%
% cell growth at 10 µM (SK-MEL-28): 100%
percent cell growth at 10 µM (UACC-257): 101%
percent cell growth at 10 µM (PC-3): 79.6%
% cell growth at 10 µM (CCRF-CEM): 75.5%
activity at 10 µM (HS 578T): 93%
% growth at 10 µM (SF-539): 80.4%
activity at 10 µM (MCF7): 76.6%
activity at 10 µM (T-47D): 72.1%
activity at 10 µM (SK-MEL-5): 97.3%
% growth at 10 µM (K-562): 86%
% growth at 10 µM (ACHN): 77.2%
activity at 10 µM (MOLT-4): 85.8%
activity at 10 µM (NCI-H460): 93.7%
% cell growth at 10 µM (EKVX): 75%
% growth at 10 µM (OVCAR-4): 83.1%
percent cell growth at 10 µM (SR): 86.8%
% growth at 10 µM (A498): 102%
activity at 10 µM (SNB-19): 87.5%
activity at 10 µM (NCI-H23): 93.7%
% growth at 10 µM (A549/ATCC): 93.1%
% growth at 10 µM (NCI-H522): 85.4%
% growth at 10 µM (HOP-62): 95.6%
% growth at 10 µM (M14): 104%
% growth at 10 µM (U251): 94%
% growth at 10 µM (HT29): 99%
% growth at 10 µM (UACC-62): 81.8%
% growth at 10 µM (CAKI-1): 79.4%
